# Laboratory results from patent publication US20250367299A1, “GAMMA-HYDRO[…] AND PROCESSES FOR MAKING AND USING THEM” (Zevra Therapeutics, Inc., priority 2022, published 2025).
# Assay: Pharmacokinetics of GHB in plasma after oral gavage of GHB delivering compounds, with relative oral bioavailability vs sodium oxybate
# Details: vehicle water; for % AUC0-4 hr, relative oral bioavailability vs study comparator (sodium oxybate) / % Cmax, relative oral bioavailability vs study comparator (sodium oxybate): mean conjugate/mean comparator
# [1] = dose molar equivalent of 100 mg/kg NaGHB
# [2] = dose equivalent to 80 mg/kg NaGHB
SMILES,"% AUC0-4 hr, relative oral bioavailability vs study comparator (sodium oxybate) [1]","% Cmax, relative oral bioavailability vs study comparator (sodium oxybate) [1]","Tmax of GHB in plasma (oral gavage, dose molar equivalent of 100 mg/kg NaGHB)","% AUC0-4 hr, relative oral bioavailability vs study comparator (sodium oxybate) [2]","% Cmax, relative oral bioavailability vs study comparator (sodium oxybate) [2]"
O=C1CCCO1 [GBL],27%,70%,15 min,–,–
"CCOC(=O)OCCCC(=O)O [O-(ethoxycarbonyl)-GHB, O-(Ethoxycarbonyl)-GHB]",–,–,–,54%,51%
